US20260240858A1, “ORAL FORMULATIONS, METHODS OF MANUFACTURE AND USES THEREOF” (Agency For Science, Technology And Research, priority 2019, published 2026)
Read-outs that look alike come from different tables or passages of the source.

Legend:
[1] = Solubility of compound of Formula (I) in water, buffers and surfactant solutions; format: physicochemical
Experimental: In water, compound of Formula (I) has a solubility of about 6 μg/mL. At pH 6, the solubility is about 5 μg/mL.

[2] = Degradation in water with and without SLS; format: physicochemical; conditions: after 24 h at 25° C.
Moisture sorption = format: physicochemical; conditions: at above 90% RH
[3] = Flow properties (bulk density, tapped density, Carr's index); format: physicochemical; conditions: API alone
Excerpt: Magnesium stearate was included to prevent sticking of the blend to the encapsulator contact parts (Torpac).

[4] = Particle size by dynamic light scattering; format: physicochemical
[5] = Permeability of compound of Formula (I)

## Cn1c(=O)c2c(ncn2CC(=O)Nc2ccc(-c3ccccc3)nn2)n(C)c1=O [compound of Formula (I)]
[1]; 2% w/v SLS in water, pH 8.82, aqueous with cosolvent or surfactant or cyclodextrin, thermodynamic from solid, 2% w/v SLS is water, pH after equilibration 8.82, read-out: Solubility Sample-1
  solubility: 458 µg/mL
[1]; 2% w/v SLS in water, pH 8.82, aqueous with cosolvent or surfactant or cyclodextrin, thermodynamic from solid, 2% w/v SLS is water, pH after equilibration 8.82, read-out: Solubility Sample-2
  solubility: 429 µg/mL
[1]; 2% w/v Tween 80 in pH 3.0 buffer, pH 3, aqueous with cosolvent or surfactant or cyclodextrin, thermodynamic from solid, 2% w/v Tween 80 in pH 3.0 buffer, pH after equilibration 3.16, read-out: Solubility Average (n = 2)
  solubility: 25.2 µg/mL
[1]; 2% w/v Tween 80 in pH 3.0 buffer, pH 3, aqueous with cosolvent or surfactant or cyclodextrin, thermodynamic from solid, 2% w/v Tween 80 in pH 3.0 buffer, pH after equilibration 3.16, read-out: Solubility Sample-1
  solubility: 23.8 µg/mL
[1]; 2% w/v Tween 80 in pH 3.0 buffer, pH 3, aqueous with cosolvent or surfactant or cyclodextrin, thermodynamic from solid, 2% w/v Tween 80 in pH 3.0 buffer, pH after equilibration 3.16, read-out: Solubility Sample-2
  solubility: 26.7 µg/mL
[1]; 2% w/v Tween 80 in water, pH 7.72, aqueous with cosolvent or surfactant or cyclodextrin, thermodynamic from solid, 2% w/v Tween 80 in water, pH after equilibration 7.72, read-out: Solubility Average (n = 2)
  solubility: 22.8 µg/mL
[1]; 2% w/v Tween 80 in water, pH 7.72, aqueous with cosolvent or surfactant or cyclodextrin, thermodynamic from solid, 2% w/v Tween 80 in water, pH after equilibration 7.72, read-out: Solubility Sample-1
  solubility: 22.4 µg/mL
[1]; 2% w/v Tween 80 in water, pH 7.72, aqueous with cosolvent or surfactant or cyclodextrin, thermodynamic from solid, 2% w/v Tween 80 in water, pH after equilibration 7.72, read-out: Solubility Sample-2
  solubility: 23.2 µg/mL
[1]; 5% w/v PVP K 30 in pH 1.2 buffer, pH 1.2, aqueous with cosolvent or surfactant or cyclodextrin, thermodynamic from solid, 5% w/v PVP K 30 in pH 1.2 buffer, pH after equilibration 1.25, read-out: Solubility Average (n = 2)
  solubility: 35 µg/mL
[1]; 5% w/v PVP K 30 in pH 1.2 buffer, pH 1.2, aqueous with cosolvent or surfactant or cyclodextrin, thermodynamic from solid, 5% w/v PVP K 30 in pH 1.2 buffer, pH after equilibration 1.25, read-out: Solubility Sample-1
  solubility: 34.8 µg/mL
[1]; 5% w/v PVP K 30 in pH 1.2 buffer, pH 1.2, aqueous with cosolvent or surfactant or cyclodextrin, thermodynamic from solid, 5% w/v PVP K 30 in pH 1.2 buffer, pH after equilibration 1.25, read-out: Solubility Sample-2
  solubility: 35.2 µg/mL
[1]; 5% w/v PVP K 30 in pH 3.0 buffer, pH 3, aqueous with cosolvent or surfactant or cyclodextrin, thermodynamic from solid, 5% w/v PVP K 30 in pH 3.0 buffer, pH after equilibration 3.12, read-out: Solubility Average (n = 2)
  solubility: 17.9 µg/mL
[1]; 5% w/v PVP K 30 in pH 3.0 buffer, pH 3, aqueous with cosolvent or surfactant or cyclodextrin, thermodynamic from solid, 5% w/v PVP K 30 in pH 3.0 buffer, pH after equilibration 3.12, read-out: Solubility Sample-1
  solubility: 19.9 µg/mL
[1]; 5% w/v PVP K 30 in pH 3.0 buffer, pH 3, aqueous with cosolvent or surfactant or cyclodextrin, thermodynamic from solid, 5% w/v PVP K 30 in pH 3.0 buffer, pH after equilibration 3.12, read-out: Solubility Sample-2
  solubility: 15.8 µg/mL
[1]; 5% w/v PVP K 30 in water, pH 3.96, aqueous with cosolvent or surfactant or cyclodextrin, thermodynamic from solid, 5% w/v PVP K 30 in water, pH after equilibration 3.96, read-out: Solubility Average (n = 2)
  solubility: 15.8 µg/mL
[1]; 5% w/v PVP K 30 in water, pH 3.96, aqueous with cosolvent or surfactant or cyclodextrin, thermodynamic from solid, 5% w/v PVP K 30 in water, pH after equilibration 3.96, read-out: Solubility Sample-1
  solubility: 18.1 µg/mL
[1]; 5% w/v PVP K 30 in water, pH 3.96, aqueous with cosolvent or surfactant or cyclodextrin, thermodynamic from solid, 5% w/v PVP K 30 in water, pH after equilibration 3.96, read-out: Solubility Sample-2
  solubility: 13.5 µg/mL
[1]; 20% w/v SLS in pH 1.2 buffer, pH 1.2, aqueous with cosolvent or surfactant or cyclodextrin, thermodynamic from solid, 20% w/v SLSixpB 1.2 buffer, pH after equilibration 1.33, read-out: Solubility Average (n = 2)
  solubility: 2020 µg/mL
[1]; 20% w/v SLS in pH 1.2 buffer, pH 1.2, aqueous with cosolvent or surfactant or cyclodextrin, thermodynamic from solid, 20% w/v SLSixpB 1.2 buffer, pH after equilibration 1.33, read-out: Solubility Sample-1
  solubility: 1860 µg/mL
[1]; 20% w/v SLS in pH 1.2 buffer, pH 1.2, aqueous with cosolvent or surfactant or cyclodextrin, thermodynamic from solid, 20% w/v SLSixpB 1.2 buffer, pH after equilibration 1.33, read-out: Solubility Sample-2
  solubility: 2170 µg/mL
[1]; 28% w/v SLS in pH 3.0 buffer, pH 3, aqueous with cosolvent or surfactant or cyclodextrin, thermodynamic from solid, 28% w/v SL.S in pH 3.0 baffer, pH after equilibration 2.95, read-out: Solubility Average (n = 2)
  solubility: 404 µg/mL
[1]; 28% w/v SLS in pH 3.0 buffer, pH 3, aqueous with cosolvent or surfactant or cyclodextrin, thermodynamic from solid, 28% w/v SL.S in pH 3.0 baffer, pH after equilibration 2.95, read-out: Solubility Sample-1
  solubility: 394 µg/mL
[1]; 28% w/v SLS in pH 3.0 buffer, pH 3, aqueous with cosolvent or surfactant or cyclodextrin, thermodynamic from solid, 28% w/v SL.S in pH 3.0 baffer, pH after equilibration 2.95, read-out: Solubility Sample-2
  solubility: 415 µg/mL
[1]; 29% w/v Tween 80 in pH 1.2 buffer, pH 1.2, aqueous with cosolvent or surfactant or cyclodextrin, thermodynamic from solid, 29% w/v Tween 80 in pH 1.2 buffer, pH after equilibration 1.25, read-out: Solubility Average (n = 2)
  solubility: 37.2 µg/mL
[1]; 29% w/v Tween 80 in pH 1.2 buffer, pH 1.2, aqueous with cosolvent or surfactant or cyclodextrin, thermodynamic from solid, 29% w/v Tween 80 in pH 1.2 buffer, pH after equilibration 1.25, read-out: Solubility Sample-1
  solubility: 37.3 µg/mL
[1]; 29% w/v Tween 80 in pH 1.2 buffer, pH 1.2, aqueous with cosolvent or surfactant or cyclodextrin, thermodynamic from solid, 29% w/v Tween 80 in pH 1.2 buffer, pH after equilibration 1.25, read-out: Solubility Sample-2
  solubility: 37.1 µg/mL
[1]; 50% w/v Poloxamer 188 in pH 1.2 buffer, pH 1.2, aqueous with cosolvent or surfactant or cyclodextrin, thermodynamic from solid, 50% w/v Poloxamer 188 in pH 1.2 buffer, pH after equilibration 1.25, read-out: Solubility Average (n = 2)
  solubility: 35.5 µg/mL
[1]; 50% w/v Poloxamer 188 in pH 1.2 buffer, pH 1.2, aqueous with cosolvent or surfactant or cyclodextrin, thermodynamic from solid, 50% w/v Poloxamer 188 in pH 1.2 buffer, pH after equilibration 1.25, read-out: Solubility Sample-1
  solubility: 35.6 µg/mL
[1]; 50% w/v Poloxamer 188 in pH 1.2 buffer, pH 1.2, aqueous with cosolvent or surfactant or cyclodextrin, thermodynamic from solid, 50% w/v Poloxamer 188 in pH 1.2 buffer, pH after equilibration 1.25, read-out: Solubility Sample-2
  solubility: 35.4 µg/mL
[1]; 50% w/v Poloxamer 188 in water, pH 7.23, aqueous with cosolvent or surfactant or cyclodextrin, thermodynamic from solid, 50% w/v Poloxamer 188 in water, pH after equilibration 7.23, read-out: Solubility Average (n = 2)
  solubility: 9.63 µg/mL
[1]; 50% w/v Poloxamer 188 in water, pH 7.23, aqueous with cosolvent or surfactant or cyclodextrin, thermodynamic from solid, 50% w/v Poloxamer 188 in water, pH after equilibration 7.23, read-out: Solubility Sample-1
  solubility: 10.9 µg/mL
[1]; 50% w/v Poloxamer 188 in water, pH 7.23, aqueous with cosolvent or surfactant or cyclodextrin, thermodynamic from solid, 50% w/v Poloxamer 188 in water, pH after equilibration 7.23, read-out: Solubility Sample-2
  solubility: 8.39 µg/mL
[1]; 59% w/v Poloxamer 188 in pH 3.0 buffer, pH 3, aqueous with cosolvent or surfactant or cyclodextrin, thermodynamic from solid, 59% w/v Poloxamer 188 in pH 3.0 buffer, pH after equilibration 3.30, read-out: Solubility Average (n = 2)
  solubility: 18.3 µg/mL
[1]; 59% w/v Poloxamer 188 in pH 3.0 buffer, pH 3, aqueous with cosolvent or surfactant or cyclodextrin, thermodynamic from solid, 59% w/v Poloxamer 188 in pH 3.0 buffer, pH after equilibration 3.30, read-out: Solubility Sample-1
  solubility: 18.7 µg/mL
[1]; 59% w/v Poloxamer 188 in pH 3.0 buffer, pH 3, aqueous with cosolvent or surfactant or cyclodextrin, thermodynamic from solid, 59% w/v Poloxamer 188 in pH 3.0 buffer, pH after equilibration 3.30, read-out: Solubility Sample-2
  solubility: 17.9 µg/mL
[1]; citrate buffer, pH 3, aqueous buffer, thermodynamic from solid, pH 3.0 (Citrate buffer), read-out: Solubility Average (n = 2)
  solubility: 7.77 µg/mL
[1]; citrate buffer, pH 3, aqueous buffer, thermodynamic from solid, pH 3.0 (Citrate buffer), read-out: Solubility Sample-1
  solubility: 7.76 µg/mL
[1]; citrate buffer, pH 3, aqueous buffer, thermodynamic from solid, pH 3.0 (Citrate buffer), read-out: Solubility Sample-2
  solubility: 7.78 µg/mL
[1]; hydrochloric acid buffer, pH 1.2, simulated gastric fluid, thermodynamic from solid, pH 1.2 (Hydrochloric acid buffer), read-out: Solubility Average (n = 2)
  solubility: 20.8 µg/mL
[1]; hydrochloric acid buffer, pH 1.2, simulated gastric fluid, thermodynamic from solid, pH 1.2 (Hydrochloric acid buffer), read-out: Solubility Sample-1
  solubility: 20.8 µg/mL
[1]; hydrochloric acid buffer, pH 1.2, simulated gastric fluid, thermodynamic from solid, pH 1.2 (Hydrochloric acid buffer), read-out: Solubility Sample-2
  solubility: 20.9 µg/mL
[1]; pH 2, simulated gastric fluid, At pH 2, read-out: solubility
  solubility: ~8.4 µg/mL
[1]; pH 4, aqueous buffer, At pH 4, read-out: solubility
  solubility: ~6.4 µg/mL
[1]; pH 6, aqueous buffer, At pH 6, read-out: solubility
  solubility: ~5 µg/mL
[1]; water, In water, read-out: solubility
  solubility: ~6 µg/mL
[1]; water, in water, read-out: solubility
  solubility: < 6 µg/mL
[1]; water, pH 7.95, water, thermodynamic from solid, Water, pH after equilibration 7.95, read-out: Solubility Average (n = 2)
  solubility: 5.99 µg/mL
[1]; water, pH 7.95, water, thermodynamic from solid, Water, pH after equilibration 7.95, read-out: Solubility Sample-1
  solubility: 6 µg/mL
[1]; water, pH 7.95, water, thermodynamic from solid, Water, pH after equilibration 7.95, read-out: Solubility Sample-2
  solubility: 5.97 µg/mL
[2]; In water
  degradation: about 40%
[2]; water with 2% w/v SLS
  degradation: no (or minimal) degradation
Moisture sorption
  water uptake: about 1%
[3]
  flow properties of the API: poor flow properties
[4]
  d10: 2-5 μm
  d50: 10-30 μm
  d90: 35-55 μm
[5]
  permeability: low
